Molecules are shown by their SMILES.

Sequence of PDE4D (Q08499 303-809 limits assumed): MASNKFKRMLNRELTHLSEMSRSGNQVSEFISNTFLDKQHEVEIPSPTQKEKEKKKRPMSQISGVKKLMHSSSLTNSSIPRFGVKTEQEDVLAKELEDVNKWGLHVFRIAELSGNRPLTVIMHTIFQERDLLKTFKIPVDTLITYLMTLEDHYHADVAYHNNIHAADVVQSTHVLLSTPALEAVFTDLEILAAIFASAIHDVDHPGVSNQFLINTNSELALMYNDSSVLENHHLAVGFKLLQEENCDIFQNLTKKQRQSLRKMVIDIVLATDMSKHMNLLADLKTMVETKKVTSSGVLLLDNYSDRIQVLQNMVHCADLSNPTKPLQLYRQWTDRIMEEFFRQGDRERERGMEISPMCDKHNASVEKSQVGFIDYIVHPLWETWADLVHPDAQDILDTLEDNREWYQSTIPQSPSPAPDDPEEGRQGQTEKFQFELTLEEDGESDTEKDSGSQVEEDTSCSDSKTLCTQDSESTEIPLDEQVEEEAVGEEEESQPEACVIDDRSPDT

The first data set deals with PDE4D (Homo sapiens, UniProt Q08499). Put plainly: Inhibitory action on PDE4 (homogenate of BHK cells expressing cloned human PDE4D, [3H]-cAMP hydrolysis). It is filed as biochemical. The note with it: average in triplicate measurements; 1 μM [3H]-cAMP substrate; read-out: PDE4 Inhibition IC50. The procedure:
Inhibitory Action on PDE4: PDE4D was cloned from human placental mRNA by PCR techniques, and cDNA after an alternative spliced site (Mol. Cell. Biol., 13, 6558, 1993) was expressed in BHK cells. Two clones of BHK cells expressing PDE4 activity which was 100 or more times as high as endogenous PDE4 activity were obtained, and one of the clones was cultured in a large amount, and its homogenate was used as an enzyme source of PDE4.
50 mM Tris-HCl (pH 8.0), 0.1 mM EGTA, 0.1 mM MgCl2, 1 μM [^3H]-cGMP (100,000 dpm/tube) or 1 μM [^3H]-cAMP (100,000 dpm/tube) was added to the above homogenate, and 0.2 ml of the mixture was incubated at 30° C. for 10 to 20 minutes in the presence or absence of a test compound. The enzyme reaction was stopped by incubating the mixture at 95° C. for 1.5 minutes, and after cooling on ice, 50 μl nucleotidase (10 units/ml) was added thereto and incubated at 30° C. for 10 minutes. 550 μl of AG1-X2 resin slurry (H2O:resin=2:1) was added to the reaction mixture, then left at 4° C. for 10 minutes and centrifuged (10,000 rpm, 2.5 minutes, 4° C.), and 450 μl of the supernatant was measured for radioactivity.
The activity was compared in terms of IC50 (concentration of the compound at which 50% of the enzyme activity is inhibited) IC50 was determined by plotting of the concentration of cAMP as the substrate and the concentration of the compound on logarithmic graph paper. The results shown in Table 1 are the average in triplicate measurements. The test compound was first dissolved in DMSO and then diluted with the above-mentioned buffer for use.
By IC50 is commonly meant the concentration at which inhibition is half-maximal. Take `CNc1nc(-c2cccc(NC(=O)c3ccc(N4CCCC4)nc3)c2)c2cc(OC)c(OC)cc2n1` [Example 31, 6,7-Dimethoxy-2-methylamino-4-[3-(6-pyrrolidinonicotinoylamino)phenyl]quinazoline]: the concentration for half-maximal inhibition (IC50) stood at 2.5 nM.

As for `CNc1nc(-c2cccc(-c3cncc(-c4ccccc4)c3)c2)c2cc(OC)c(OC)cc2n1` [Example 63, 6,7-Dimethoxy-2-methylamino-4-[3-(5-phenyl-3-pyridyl)phenyl]quinazoline], the half-inhibitory concentration (IC50) turned out to be 0.6 nM.

For the compound `CNc1nc(-c2cccc(C#Cc3ccccc3)c2)c2cc(OC)c(OC)cc2n1` [Example 65, 6,7-Dimethoxy-2-methylamino-4-[3-(2-phenylethynyl)phenyl]quinazoline], the IC50 came out at 2.5 nM.

`CNc1nc(-c2cccc(-c3cccc(-c4ccccc4)c3)c2)c2cc(OC)c(OC)cc2n1` [Example 56, 6,7-Dimethoxy-2-methylamino-4-(3′-phenyl-3-biphenylyl)quinazoline]: the concentration for half-maximal inhibition (IC50) was 1.2 nM.

`CNc1nc(-c2cccc(-c3cncc(SC)c3)c2)c2cc(OC)c(OC)cc2n1` [Example 58, 6,7-Dimethoxy-2-methylamino-4-[3-(5-methylthio-3-pyridyl)phenyl]quinazoline]: the half-inhibitory concentration (IC50) worked out at 2.8 nM.

Consider `CNc1nc(-c2cccc(-c3cnc4c(C)cccc4c3)c2)c2cc(OC)c(OC)cc2n1` [Example 64, 6,7-Dimethoxy-4-[3-(8-methyl-3-quinolyl)phenyl]-2-methylaminoquinazoline], for which the 50% inhibitory concentration (IC50) was found to be 0.19 nM.

System in another data set: not given
Assay: not given
Conditions: not given
In general, melting point refers to the temperature, or range, at which the solid turns liquid. For `CNc1nc(-c2cccc(NC(=O)c3ccc(N4CCCC4)nc3)c2)c2cc(OC)c(OC)cc2n1` [Example 31, 6,7-Dimethoxy-2-methylamino-4-[3-(6-pyrrolidinonicotinoylamino)phenyl]quinazoline], the melting point lay within 239 to 241 °C.

The compound `CNc1nc(-c2cccc(-c3cncc(-c4ccccc4)c3)c2)c2cc(OC)c(OC)cc2n1` [Example 63, 6,7-Dimethoxy-2-methylamino-4-[3-(5-phenyl-3-pyridyl)phenyl]quinazoline] yielded a melting point of 200 to 202 °C.

Compound `CNc1nc(-c2cccc(C#Cc3ccccc3)c2)c2cc(OC)c(OC)cc2n1` [Example 65, 6,7-Dimethoxy-2-methylamino-4-[3-(2-phenylethynyl)phenyl]quinazoline] returned a melting point of 102 to 104 °C.

As to `CNc1nc(-c2cccc(-c3cccc(-c4ccccc4)c3)c2)c2cc(OC)c(OC)cc2n1` [Example 56, 6,7-Dimethoxy-2-methylamino-4-(3′-phenyl-3-biphenylyl)quinazoline], the melting point was in the range of 193 to 195 °C.

`CNc1nc(-c2cccc(-c3cncc(SC)c3)c2)c2cc(OC)c(OC)cc2n1` [Example 58, 6,7-Dimethoxy-2-methylamino-4-[3-(5-methylthio-3-pyridyl)phenyl]quinazoline] gave a melting point of 184 to 186 °C.

Compound `CNc1nc(-c2cccc(-c3cnc4c(C)cccc4c3)c2)c2cc(OC)c(OC)cc2n1` [Example 64, 6,7-Dimethoxy-4-[3-(8-methyl-3-quinolyl)phenyl]-2-methylaminoquinazoline] displayed a melting point of 188 to 190 °C.

Take `CNc1nc(-c2cccc(-c3cncc([S+](C)[O-])c3)c2)c2cc(OC)c(OC)cc2n1` (stereo not shown) [Example 59, 6,7-Dimethoxy-2-methylamino-4-[3-(5-methylsulfinyl-3-pyridyl)phenyl]quinazoline]: the melting point was 208 to 210 °C.

In the case of `CNc1ccc(C#Cc2cccc(-c3nc(NC)nc4cc(OC)c(OC)cc34)c2)cn1` [Example 68, 6,7-Dimethoxy-2-methylamino-4-[3-[2-(6-methylamino-3-pyridyl)ethynyl]phenyl]quinazoline], the melting point lay within 136 to 138 °C.

For the compound `CNc1nc(-c2cccc(OCc3ccccc3)c2)c2cc(OC)c(OC)cc2n1` [Example 72, 4-(3-Benzyloxyphenyl)-6,7-dimethoxy-2-methylaminoquinazoline], the melting point lay in the range of 116 to 118 °C.

For `CNc1ccc(C#Cc2cncc(-c3nc(NC)nc4cc(OC)c(OC)cc34)c2)cn1` [Example 79, 6,7-Dimethoxy-2-methylamino-4-[5-[2-(6-methylamino-3-pyridyl)ethynyl]-3-pyridyl]quinazoline], the melting point is 160 to 162 °C.

Consider `CNc1nc(-c2cccc(-c3ccc(C)c(C)c3)c2)c2cc(OC)c(OC)cc2n1` [Example 48, 6,7-Dimethoxy-4-(3′,4′-dimethyl-3-biphenylyl)-2-methylaminoquinazoline], for which the melting point was 149 to 151 °C.

`CNc1nc(-c2cccc(/C=C/c3ccccc3)c2)c2cc(OC)c(OC)cc2n1` [Example 69, 6,7-Dimethoxy-2-methylamino-4-[3-(2-phenylethenyl)phenyl]quinazoline] gave a melting point of 110 to 112 °C.

On to `CNc1nc(-c2cccc(NC(=O)c3cccc(Cl)c3)c2)c2cc(OC)c(OC)cc2n1` [Example 9, 4-[3-(3-Chlorobenzoylamino)phenyl]-6,7-dimethoxy-2-methylaminoquinazoline], for which the melting point fell in the range of 124 to 126 °C.

As for `CNc1nc(-c2ccc(-c3ccccc3)s2)c2cc(OC)c(OC)cc2n1` [Example 74, 6,7-Dimethoxy-2-methylamino-4-(5-phenyl-2-thienyl)quinazoline], the melting point lay in the range of 201 to 203 °C.

For the compound `CNc1nc(-c2cccc(Oc3ccccc3)c2)c2cc(OC)c(OC)cc2n1` [Example 73, 6,7-Dimethoxy-2-methylamino-4-(3-phenoxylphenyl)quinazoline], the melting point lay in the range of 157 to 159 °C.

The compound `CCCN(Cc1ccccc1)c1cccc(-c2nc(NC)nc3cc(OC)c(OC)cc23)c1` [Example 41, 4-[3-(N-benzyl-N-propylamino)phenyl]-6,7-dimethoxy-2-methylaminoquinazoline] had a melting point of 75 to 77 °C.

For the compound `CNc1nc(-c2cccc(NC(=O)c3ccc(Cl)nc3)c2)c2cc(OC)c(OC)cc2n1` [Example 29, 4-[3-(6-Choloronicotinoylamino)phenyl]-6,7-dimethoxy-2-methylaminoquinazoline], the melting point was 157 to 159 °C.

On to `CNc1nc(-c2cccc(NC(=O)c3ccc(Cl)cc3)c2)c2cc(OC)c(OC)cc2n1` [Example 10, 4-[3-(4-Chlorobenzoylamino)phenyl]-6,7-dimethoxy-2-methylaminoquinazoline], for which the melting point fell in the range of 193 to 195 °C.

`CNc1nc(-c2cncc(C#Cc3cccnc3)c2)c2cc(OC)c(OC)cc2n1` [Example 78, 6,7-Dimethoxy-2-methylamino-4-[5-[2-(3-pyridyl)ethynyl]-3-pyridyl]quinazoline]: the melting point is 208 to 211 °C.

In turn, `CNc1nc(-c2cccc(-c3cccc([S+](C)[O-])c3)c2)c2cc(OC)c(OC)cc2n1` (stereo not shown) [Example 55, 6,7-Dimethoxy-2-methylamino-4-(3-methylsulfinyl-3-biphenylyl)quinazoline] came in with a melting point of 163 to 165 °C.

For `CNc1nc(-c2cccc(NC(=O)c3cccc(OCc4ccccc4)c3)c2)c2cc(OC)c(OC)cc2n1` [Example 22, 4-[3-(3-Benzyloxybenzoylamino)phenyl]-6,7-dimethoxy-2-methylaminoquinazoline], the melting point was 110 to 112 °C.

In the case of `CNc1nc(-c2cccc(CCc3ccccc3)c2)c2cc(OC)c(OC)cc2n1` [Example 66, 6,7-Dimethoxy-2-methylamino-4-[3-(2-phenylethyl)phenyl]quinazoline], the melting point fell in the range of 95 to 97 °C.

`CNc1nc(-c2cncc(-c3ccc(SC)cc3)c2)c2cc(OC)c(OC)cc2n1` [Example 77, 6,7-Dimethoxy-2-methylamino-4-[5-(4-methylthiophenyl)-3-pyridyl]quinazoline] had a melting point of 170 to 172 °C.

Regarding `CNc1nc(-c2cccc(-c3ccccc3)c2)c2cc(OC)c(OC)cc2n1` [Example 46, 4-(3-Biphenylyl)-6,7-dimethoxy-2-methylaminoquinazoline], the melting point was 183 to 185 °C.

`CNc1nc(-c2cccc(N(C)C(=O)c3ccccc3)c2)c2cc(OC)c(OC)cc2n1` [Example 42, 4-[3-(N-benzoyl-N-methylamino)phenyl]-6,7-dimethoxy-2-methylaminoquinazoline] yielded a melting point of 198 to 200 °C.

The compound `CNc1nc(-c2cccc(NC(=O)c3ccnc(Cl)c3)c2)c2cc(OC)c(OC)cc2n1` [Example 33, 4-[3-(2-Chloroisonicotinoylamino)phenyl]-6,7-dimethoxy-2-methylaminoquinazoline] registered a melting point of 151 to 153 °C.

`CNc1nc(-c2cccc(NC(=O)c3ccccc3O)c2)c2cc(OC)c(OC)cc2n1` [Example 25, 6,7-Dimethoxy-4-[3-(2-hydroxybenzoylamino)phenyl]-2-methylaminoquinazoline] came in with a melting point of 212 to 214 °C.

On to `CNc1nc(-c2cncc(-c3ccccc3)c2)c2cc(OC)c(OC)cc2n1` [Example 75, 6,7-Dimethoxy-2-methylamino-4-(5-phenyl-3-pyridyl)quinazoline], for which the melting point fell in the range of 177 to 179 °C.

For `CNc1nc(-c2cccc(NC(=O)c3cccnc3)c2)c2cc(OC)c(OC)cc2n1` [Example 4, 6,7-Dimethoxy-2-methylamino-4-[3-(3-pyridinecarbonylamino)phenyl]quinazoline], the melting point fell in the range of 251 to 253 °C.

As to `CNc1nc(-c2cccc(NC(=O)c3ccccc3)c2)c2cc(OCc3ccccc3)c(OC)cc2n1` [Example 81, 4-(3-Benzoylaminophenyl)-6-benzyloxy-7-methoxy-2-methylaminoquinazoline], the melting point was in the range of 204 to 206 °C.

Regarding `CNc1nc(-c2cccc(NCc3ccccc3)c2)c2cc(OC)c(OC)cc2n1` [Example 38], the melting point lay in the range of 146 to 148 °C.

`CNc1nc(-c2cccc(N3C(=O)c4ccccc4C3=O)c2)c2cc(OC)c(OC)cc2n1` [Example 37, 6,7-Dimethoxy-2-methylamino-4-(3-phthalimidephenyl) quinazoline]: the melting point lay within 280 to 282 °C.

In the case of `CNc1nc(-c2cccc(NC(=O)Nc3ccccc3)c2)c2cc(OC)c(OC)cc2n1` [Example 36, 6,7-Dimethoxy-2-methylamino-4-[3-(3-phenylureido)phenyl]quinazoline], the melting point was in the range of 218 to 220 °C.

`CNc1nc(-c2cccc(-n3cccc3)c2)c2cc(OC)c(OC)cc2n1` [Example 43, 6,7-Dimethoxy-2-methylamino-4-[3-(1-pyrrolyl)phenyl]quinazoline]: the melting point is 199 to 201 °C.
